From article PMC8880385 (Pharmaceuticals, 2022)

What was measured:
O. volvulus pre-adult L5 [1] = experiment: Ov L5 viability by endpoint MTT assay; assay type: cell-based, Onchocerca volvulus; settings: 1 µM
Procedure: Briefly, Ov L3 larvae were cultured to the pre-adult/L5 stage in vitro as described by Voronin et al., 2019 [45]. Once larvae reached the L5 stage (after at least 70 days in culture), 8–10 Ov L5 were moved to new transwell inserts in a 24-well plate containing 0.5 mL Ov L4-CMS media seeded with a 3 × 10^4/well Human Umbilical Vein Endothelial Cells (HUVEC) monolayer. Duplicate wells were treated with 1 and/or 10 µM of compound. Ov L5 were exposed to compounds for 14 days (exchanged 50% of media with fresh compound every two days) and then cultured with new media without compound, exchanging 50% of media every 2–3 days, up to day 36. Control Ov L5 were treated with 0.05% DMSO. […] Motility was assessed visually and ranked on a 0–100% scale every 2–3 days over the course of the assay. At the end of the motility assay, Ov L5 viability was measured by 3-(4,5-dimethylthiazol-2-yl)-2,5-diphenyltetrazolium bromide (MTT) assay. Ov L5 were incubated with 0.1% MTT in PBS at 37 °C for 1 h then visually inspected for blue coloration indicating MTT reduction. Worms were considered dead if <50% of the worm was stained blue, and worms were considered alive if >50% of the worm was stained blue.

O. volvulus pre-adult L5 [2] = experiment: O. volvulus pre-adult (Ov L5) motility assay; assay type: cell-based, Onchocerca volvulus; settings: Onchocerca volvulus
Procedure: O. volvulus adult male and female worms, which can only be obtained from infected individuals, are not readily accessible for ex vivo studies. Moreover, since there is no small animal model that can maintain infections by O. volvulus, a recently developed in vitro system was used to evaluate the macrofilaricidal effects on pre-adult worms. All compounds except for 04 were tested in this O. volvulus pre-adult/L5 motility and viability assay.
Briefly, Ov L3 larvae were cultured to the pre-adult/L5 stage in vitro as described by Voronin et al., 2019 [45]. Once larvae reached the L5 stage (after at least 70 days in culture), 8–10 Ov L5 were moved to new transwell inserts in a 24-well plate containing 0.5 mL Ov L4-CMS media seeded with a 3 × 10^4/well Human Umbilical Vein Endothelial Cells (HUVEC) monolayer. Duplicate wells were treated with 1 and/or 10 µM of compound. Ov L5 were exposed to compounds for 14 days (exchanged 50% of media with fresh compound every two days) and then cultured with new media without compound, exchanging 50% of media every 2–3 days, up to day 36. Control Ov L5 were treated with 0.05% DMSO. Concentrations were chosen based on activity in the B. pahangi female motility assay. Motility was assessed visually and ranked on a 0–100% scale every 2–3 days over the course of the assay. At the end of the motility assay, Ov L5 viability was measured by 3-(4,5-dimethylthiazol-2-yl)-2,5-diphenyltetrazolium bromide (MTT) assay. Ov L5 were incubated with 0.1% MTT in PBS at 37 °C for 1 h then visually inspected for blue coloration indicating MTT reduction. Worms were considered dead if <50% of the worm was stained blue, and worms were considered alive if >50% of the worm was stained blue.

O. ochengi mf = experiment: O. ochengi microfilariae motility assay; assay type: cell-based, Onchocerca ochengi; settings: 10 µM; for inhibition at 10 µM: Onchocerca ochengi, 120 h, Day 5
Procedure: (§1) To assess the effects of the compounds on O. ochengi mf, the mf were harvested from infected cow skin and cultured (10–15 mf per well) in 100 µL media in 96-well plates with a confluent feeder layer of monkey kidney epithelial cells (MK2) as previously described. […] All compounds were also counter-screened with L. loa mf collected from infected individuals with approval from the University of Buea (IRB approval # 964-19). Mf were separated from blood cells using a Percoll gradient as previously described and set up for assays (10–15 mf per well).

[3] = system: Brugia pahangi adult females; experiment: In vitro motility assay with adult female Brugia pahangi (Worminator); settings: for IC50 / inhibition at 1 µM: Brugia pahangi, 72 h; for IC50: read-out: Brugia Adult Females Inhibition of Motility Day 3 IC50; for inhibition at 1 µM: read-out: Brugia Adult Females Inhibition of Motility Day 3 @ 1 µM, 1 µM, Day 3
O. ochengi adult females = experiment: O. ochengi adult female viability (MTT) assay; assay type: cell-based; settings: Onchocerca ochengi, 168 h; Day 7, MTT; read-out: O. ochengi Adult Females Inhibition of Survival Day 7 IC50
From the text: (§2) As humans are the only hosts for O. volvulus which are unavailable for screening, drug discovery relies on the surrogate filarial parasites Brugia spp. and cattle Onchocerca spp. Prioritized compounds from the Brugia worm screens were further tested with female and male adult O. ochengi as well as O. ochengi and L. loa mf.
(§3) For these assays, O. ochengi adults were extracted from the subcutaneous nodules of infected cow skins purchased from the local slaughterhouse (Douala, Littoral Region, Cameroon) and incubated in 4 mL complete culture media comprised of RPMI-1640 (Sigma-Aldrich), 5% newborn calf serum, 200 units/mL penicillin, 200 μg/mL streptomycin and 2.5 μg/mL amphotericin B (Sigma-Aldrich) in 12-well plates overnight to validate sterility prior to the assays. Four to eight O. ochengi adult masses were treated individually the following day with a serial dilution of each compound, and controls were treated with 1% DMSO. While in culture, the male worms normally egress from the nodules into the surrounding media and thus can be monitored in parallel for motility. The O. ochengi adult masses were incubated at 37 °C with 5% CO2 for the duration of the assay. Male motility within each well was visually scored every day and over 5 days after compound addition, and female viability within the nodules was assessed by MTT after 7 days as previously described. The O. ochengi adult masses containing female worms were individually placed in wells of a 48-well plate with 0.5 mL of 0.5 mg/mL MTT in PBS and incubated at 37 °C for 30 min. […] Prism 4.0 for Windows was used to calculate IC50s.

[4] = Gerbil liver microsome stability assay; assay type: in vitro ADME; settings: for CLint: gerbil liver microsomes; for half-life at 1 µM: pH 7.4, 1 µM compound, 0.5 mg/mL microsomes, read-out: Gerbil Liver Microsome T1/2
Procedure: Microsomal stability was tested using 1 µM of each test compound in a 96-well plate containing 0.5 mg/mL gerbil liver microsomes, 1 mM NADPH and/or UDPGA with alamethicin in a buffer of 100 mM potassium phosphate with 3 mM magnesium chloride at pH 7.4. Verapamil was used as a positive control. Reactions were incubated at 37 °C, and 100% acetonitrile with 0.1% formic acid was added at 0, 15, 30 and 60 min timepoints to stop the reaction. Samples were then separated over a Waters Atlantis T3 dC18 reverse phase HPLC column with 0.1% formic acid in water and 0.1% formic acid in acetonitrile. Samples were analyzed using an AB Sciex API 4000 LC–MS/MS.

in vitro = settings: dog, MDCK-MDR1
Procedure: Permeability assays were conducted using 5 µM of each test compound with digoxin as a control. […] electrical resistance was used to verify the integrity of the MDCK-MDR1 monolayer. After compound addition, plates were incubated at 37 °C with 5% CO2 for 1 h. Samples were analyzed by LC–MS/MS and net flux ratio was calculated using basal-to-apical and apical-to-basal permeability.

O. ochengi adult males = experiment: O. ochengi adult male motility assay; assay type: cell-based; settings: Onchocerca ochengi, 120 h; for IC50: read-out: O. ochengi Adult Males Inhibition of Motility Day 5 IC50; for inhibition at 10 µM: single concentration 10 µM, read-out: O. ochengi Adult Males Inhibition of Motility Day 5
From the text: as §2
as §3, with “min. Female viability was visually rated by the degree of formazan production (live worms have blue coloration) in the female worm within the treated nodule versus control worm masses.” for “min.”

Loa loa mf = experiment: Loa loa microfilariae motility counter-screen; assay type: cell-based; settings: for inhibition at 10 µM: Loa loa, 120 h, Day 5
Procedure: as §1

[5] = Day 36 @ 1 µM, 14 days drug then washout

| Compound | O. volvulus L5 % inhibition of viability Day 37 (MTT assay) (O. volvulus pre-adult L5 [1]) [%] | inhibition at 1 µM (O. volvulus pre-adult L5 [2]; [5]) [%] | O. ochengi Mf Inhibition of Motility Day 5 @ 10 µM (O. ochengi mf) | inhibition at 10 µM (O. ochengi mf) [%] | Brugia Adult Females Inhibition of Motility Day 3 @ 1 µM [3] [%] | IC50 [3] [nM] | Brugia Adult Females Inhibition of Motility Day 3 IC50 [3] | IC50 (O. ochengi adult females) [nM] | CLint [4] [µL/min/mg Protein] | half-life at 1 µM [4] [min] | Papp A→B (in vitro) [×10⁻⁶ cm/s] | Papp B→A (in vitro) [×10⁻⁶ cm/s] | IC50 (O. ochengi adult males) [nM] | Loa loa Mf Inhibition of Motility Day 5 @ 10 µM (Loa loa mf) | inhibition at 10 µM (Loa loa mf) [%] | inhibition at 1 µM (O. volvulus pre-adult L5 [2]; 384 h, Day 16 @ 1 µM, assay stopped on day 16 (contamination)) [%] | inhibition at 1 µM [3] [%] | inhibition at 10 µM (O. volvulus pre-adult L5 [2]; 672 h, Day 28 @ 10 µM) [%] | inhibition at 10 µM (O. ochengi adult males) [%] |
| --- | --- | --- | --- | --- | --- | --- | --- | --- | --- | --- | --- | --- | --- | --- | --- | --- | --- | --- | --- |
| Cc1cc(/C=C/c2ccc3ccccc3[n+]2C)c(C)n1-c1ccccc1.[I-] [Analog 01, 2-[(E)-2-(2,5-dimethyl-1-phenyl-1H-pyrrol-3-yl)ethenyl]-1-methylquinolin-1-ium iodide] | 87 | > 90 | completely inhibited | 100 | 99 | 8 | sub-micromolar range | 790 | 610.8 | 2.3 | 0.1 | 61.3 | 960 | completely inhibited | 100 | – | – | – | – |
| Cc1ccc2c(ccc(/C=C/c3cc(C)n(-c4ccccc4)c3C)[n+]2C)c1.[I-] [Analog 02, 2-[(E)-2-(2,5-dimethyl-1-phenyl-1H-pyrrol-3-yl)ethenyl]-1,6-dimethylquinolin-1-ium iodide] | – | > 90 | completely inhibited | 100 | 83 | 1 | sub-micromolar range | 700 | 541.8 | 2.6 | 0.1 | 51.2 | 3080 | completely inhibited | 100 | 90 | > 70 | – | – |
| Cc1c(/C=C/c2ccc3ccccc3[n+]2C)cnn1-c1ccccc1.[I-] [Analog 03, 1-methyl-2-[(E)-2-(5-methyl-1-phenyl-1H-pyrazol-4-yl)ethenyl]quinolin-1-ium iodide] | – | – | little to no effect | 0 | – | – | – | 5180 | 280.2 | 4.9 | 1.3 | 9.1 | 1540 | little to no effect | 13 | – | 3 | 97 | – |
| C[n+]1c(/C=C/c2cnn(-c3ccccc3)c2)ccc2ccccc21.[I-] [Analog 04, 1-methyl-2-[(E)-2-(1-phenyl-1H-pyrazol-4-yl)ethenyl]quinolin-1-ium iodide] | – | – | little to no effect | 0 | – | – | – | – | – | – | – | – | – | little to no effect | 38 | – | 26 | – | 100 |
| Cc1nn(-c2ccccc2)c(C)c1/C=C/c1ccc2ccccc2[n+]1C.[I-] [Analog 05, 2-[(E)-2-(3,5-dimethyl-1-phenyl-1H-pyrazol-4-yl)ethenyl]-1-methylquinolin-1-ium iodide] | 76 | > 90 | little to no effect | 0 | 81 | 405 | sub-micromolar range | – | 179.88 | 7.7 | 0.7 | 6.8 | – | little to no effect | 38 | – | > 70 | – | 86 |
